Assay results from patent US9783527B2, “Indazole ureas and method of use” (AbbVie Inc., priority 2014, dated 2017).

Tests used:
[1] = molecular target: human Nav1.8 (Homo sapiens (Human), UniProt Q9Y5Y9); experiment: FRET-based membrane potential assay, recombinant human sodium channel Nav1.8; format: cell-based; details: HEK293 cells stably expressing recombinant human Nav1.8; depolarization with veratridine (EC80) + scorpion venom
Experimental: FRET-Based Membrane Potential Assays.
Recombinant, Human Sodium Channel, Nav1.8.
Two days prior to the experiment, frozen HEK293 cells stably expressing recombinant human Nav1.8 (Essen, Ann Arbor, Mich.) were quickly thawed and plated at 22,500 cells/well in growth medium [MEM (Invitrogen #11095) with 10% FBS (Invitrogen #10082), 1 mM sodium pyruvate (Invitrogen, #C11360), 10 units/mL penicillin/10 U/mL streptomycin/29.2 μg/mL glutamine ((PSG 1%, Invitrogen #10378), 400 μg/mL zeocin (Invitrogen #R250) in black-walled, clear-bottom 384-well poly-D-lysine-coated assay plates (Greiner Bio-One, Frickenhausen, Germany) and incubated in a humidified 5% CO2 incubator at 37° C. On the day of the assay, medium was removed by aspiration, and cells were washed with assay buffer [HBSS (Invitrogen, Carlsbad, Calif.) containing 20 mM HEPES (Invitrogen, Carlsbad, Calif.)]. After washing, 30 μL assay buffer containing the fluorescent voltage-sensor probe CC2-DMPE (Invitrogen, Carlsbad, Calif.) at 20 μM and 0.01% pluronic F-127 (Invitrogen, Carlsbad, Calif.) was added to the cells. Cells were incubated for 40 minutes at room temperature in the dark. Following the incubation, the cells were washed and 30 μL assay buffer containing 2.5 μM DiSBAC2(3) substrate (Invitrogen, Carlsbad, Calif.) and 0.5 mM VABSC-1 (Invitrogen, Carlsbad, Calif.) was added to the cells. The cells were incubated for 60 minutes at room temperature in the dark. Fluorescence readings were made using a FLIPR®^TETRA (Molecular Devices, Sunnyvale Calif.) equipped with voltage-sensor probe optics. The depolarizing agent, veratridine (Sigma-Aldrich, St. Louis, Mo.), was made up at 3× concentrations in assay buffer containing 1 mg/mL scorpion venom (SVqq, from Leiurus quinquestriatus; Sigma-Aldrich, St. Louis, Mo.). The assay agonist/opener concentration was determined each day using a 6-point veratridine concentration curve in duplicate, tested with three concentrations of tetracaine (0.1, 0.06, 0.01 μM all in 0.03% dimethyl sulfoxide) and 0.03% dimethyl sulfoxide control in assay buffer. […] Test compounds in the daughter plate were diluted to (˜3×) solutions in assay buffer immediately before assaying. Using the FLIPR®^TETRA, 20 μL of the (3×) compound solutions were first added to the cells, then 20 μL of depolarizing solution (3×EC80 veratridine+SVqq) were added 3 minutes later to activate the channel. Changes in fluorescence were measured at wavelengths of 440-480 nm and 565-625 nm over the course of the experimental run. Membrane depolarization was expressed as a ratio of the maximum F440-480 nm/F565-625 nm reading above average baseline F440-480 nm/F565-625 nm reading. IC50 values were calculated from curve fits of the ratio data using a four-parameter logistic Hill equation (Accelrys Assay Explorer 3.3 Client, Accelrys, San Diego, Calif.) with percent inhibition plotted against compound concentration.

[2] = molecular target: human Nav1.7 (Homo sapiens (Human), UniProt Q15858); experiment: FRET-based membrane potential assay, recombinant human sodium channel Nav1.7; format: cell-based; details: HEK293 cells stably expressing recombinant human Nav1.7; depolarization with veratridine (EC80) + scorpion venom
Sequence of human Nav1.7 (Q15858 whole entry): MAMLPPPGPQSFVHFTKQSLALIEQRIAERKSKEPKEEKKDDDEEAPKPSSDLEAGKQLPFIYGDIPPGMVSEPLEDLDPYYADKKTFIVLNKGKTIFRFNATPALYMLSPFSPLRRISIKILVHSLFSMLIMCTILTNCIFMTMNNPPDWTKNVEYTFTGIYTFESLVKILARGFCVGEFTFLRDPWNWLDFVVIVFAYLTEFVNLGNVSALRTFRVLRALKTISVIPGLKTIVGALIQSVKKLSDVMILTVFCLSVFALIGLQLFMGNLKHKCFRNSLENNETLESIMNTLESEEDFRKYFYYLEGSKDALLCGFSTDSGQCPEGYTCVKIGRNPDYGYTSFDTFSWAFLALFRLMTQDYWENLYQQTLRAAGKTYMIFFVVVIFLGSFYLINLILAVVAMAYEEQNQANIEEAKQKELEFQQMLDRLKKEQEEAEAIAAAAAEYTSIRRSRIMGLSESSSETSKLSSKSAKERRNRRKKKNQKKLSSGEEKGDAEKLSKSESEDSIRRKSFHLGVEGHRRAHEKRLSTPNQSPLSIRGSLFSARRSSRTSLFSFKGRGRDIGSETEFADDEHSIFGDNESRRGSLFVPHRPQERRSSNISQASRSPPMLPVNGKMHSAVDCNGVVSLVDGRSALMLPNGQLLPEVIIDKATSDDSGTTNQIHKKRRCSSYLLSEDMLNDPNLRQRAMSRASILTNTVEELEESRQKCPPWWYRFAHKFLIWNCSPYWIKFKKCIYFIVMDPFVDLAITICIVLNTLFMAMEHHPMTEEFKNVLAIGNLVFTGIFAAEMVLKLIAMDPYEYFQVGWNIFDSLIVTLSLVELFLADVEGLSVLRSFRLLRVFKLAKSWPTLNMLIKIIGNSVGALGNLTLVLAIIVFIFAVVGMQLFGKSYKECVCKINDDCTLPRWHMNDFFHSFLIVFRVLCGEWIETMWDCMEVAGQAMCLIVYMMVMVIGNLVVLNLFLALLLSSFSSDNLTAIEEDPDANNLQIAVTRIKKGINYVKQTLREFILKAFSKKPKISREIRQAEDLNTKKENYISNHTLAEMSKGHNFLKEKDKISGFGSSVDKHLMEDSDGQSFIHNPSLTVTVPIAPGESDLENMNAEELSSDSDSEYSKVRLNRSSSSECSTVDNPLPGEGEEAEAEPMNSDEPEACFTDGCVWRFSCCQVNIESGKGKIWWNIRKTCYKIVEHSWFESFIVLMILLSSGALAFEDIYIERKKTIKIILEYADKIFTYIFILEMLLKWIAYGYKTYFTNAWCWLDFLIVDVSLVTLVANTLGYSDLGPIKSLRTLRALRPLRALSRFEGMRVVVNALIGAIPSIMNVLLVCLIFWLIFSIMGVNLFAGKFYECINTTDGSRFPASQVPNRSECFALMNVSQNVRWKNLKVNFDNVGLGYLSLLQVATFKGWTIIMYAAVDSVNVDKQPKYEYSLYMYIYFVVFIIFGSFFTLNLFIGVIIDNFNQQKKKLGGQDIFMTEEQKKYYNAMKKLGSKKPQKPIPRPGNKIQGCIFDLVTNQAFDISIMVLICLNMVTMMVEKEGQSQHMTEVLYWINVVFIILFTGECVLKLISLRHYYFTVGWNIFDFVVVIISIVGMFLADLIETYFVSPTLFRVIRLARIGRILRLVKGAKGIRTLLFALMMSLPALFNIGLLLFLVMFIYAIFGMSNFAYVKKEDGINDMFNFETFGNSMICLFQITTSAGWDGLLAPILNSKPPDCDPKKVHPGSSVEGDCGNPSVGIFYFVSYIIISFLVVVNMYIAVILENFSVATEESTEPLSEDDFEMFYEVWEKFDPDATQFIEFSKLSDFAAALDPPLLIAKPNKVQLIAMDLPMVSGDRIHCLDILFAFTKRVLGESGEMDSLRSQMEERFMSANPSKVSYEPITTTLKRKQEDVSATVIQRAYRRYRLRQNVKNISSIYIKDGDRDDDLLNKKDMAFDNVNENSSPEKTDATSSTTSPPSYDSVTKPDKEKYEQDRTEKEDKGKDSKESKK
Outline: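 IC50 derived by four-parameter Hill fit of percent inhibition of depolarization, measured as peak F440-480/F565-625 ratio over baseline. Stable human Nav1.7 HEK293 cells, dye-loaded with CC2-DMPE and DiSBAC2(3)/VABSC-1 at room temperature, received compound 3 min ahead of veratridine (EC80) plus scorpion venom.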

Sequence of human Nav1.8 (Q9Y5Y9 whole entry): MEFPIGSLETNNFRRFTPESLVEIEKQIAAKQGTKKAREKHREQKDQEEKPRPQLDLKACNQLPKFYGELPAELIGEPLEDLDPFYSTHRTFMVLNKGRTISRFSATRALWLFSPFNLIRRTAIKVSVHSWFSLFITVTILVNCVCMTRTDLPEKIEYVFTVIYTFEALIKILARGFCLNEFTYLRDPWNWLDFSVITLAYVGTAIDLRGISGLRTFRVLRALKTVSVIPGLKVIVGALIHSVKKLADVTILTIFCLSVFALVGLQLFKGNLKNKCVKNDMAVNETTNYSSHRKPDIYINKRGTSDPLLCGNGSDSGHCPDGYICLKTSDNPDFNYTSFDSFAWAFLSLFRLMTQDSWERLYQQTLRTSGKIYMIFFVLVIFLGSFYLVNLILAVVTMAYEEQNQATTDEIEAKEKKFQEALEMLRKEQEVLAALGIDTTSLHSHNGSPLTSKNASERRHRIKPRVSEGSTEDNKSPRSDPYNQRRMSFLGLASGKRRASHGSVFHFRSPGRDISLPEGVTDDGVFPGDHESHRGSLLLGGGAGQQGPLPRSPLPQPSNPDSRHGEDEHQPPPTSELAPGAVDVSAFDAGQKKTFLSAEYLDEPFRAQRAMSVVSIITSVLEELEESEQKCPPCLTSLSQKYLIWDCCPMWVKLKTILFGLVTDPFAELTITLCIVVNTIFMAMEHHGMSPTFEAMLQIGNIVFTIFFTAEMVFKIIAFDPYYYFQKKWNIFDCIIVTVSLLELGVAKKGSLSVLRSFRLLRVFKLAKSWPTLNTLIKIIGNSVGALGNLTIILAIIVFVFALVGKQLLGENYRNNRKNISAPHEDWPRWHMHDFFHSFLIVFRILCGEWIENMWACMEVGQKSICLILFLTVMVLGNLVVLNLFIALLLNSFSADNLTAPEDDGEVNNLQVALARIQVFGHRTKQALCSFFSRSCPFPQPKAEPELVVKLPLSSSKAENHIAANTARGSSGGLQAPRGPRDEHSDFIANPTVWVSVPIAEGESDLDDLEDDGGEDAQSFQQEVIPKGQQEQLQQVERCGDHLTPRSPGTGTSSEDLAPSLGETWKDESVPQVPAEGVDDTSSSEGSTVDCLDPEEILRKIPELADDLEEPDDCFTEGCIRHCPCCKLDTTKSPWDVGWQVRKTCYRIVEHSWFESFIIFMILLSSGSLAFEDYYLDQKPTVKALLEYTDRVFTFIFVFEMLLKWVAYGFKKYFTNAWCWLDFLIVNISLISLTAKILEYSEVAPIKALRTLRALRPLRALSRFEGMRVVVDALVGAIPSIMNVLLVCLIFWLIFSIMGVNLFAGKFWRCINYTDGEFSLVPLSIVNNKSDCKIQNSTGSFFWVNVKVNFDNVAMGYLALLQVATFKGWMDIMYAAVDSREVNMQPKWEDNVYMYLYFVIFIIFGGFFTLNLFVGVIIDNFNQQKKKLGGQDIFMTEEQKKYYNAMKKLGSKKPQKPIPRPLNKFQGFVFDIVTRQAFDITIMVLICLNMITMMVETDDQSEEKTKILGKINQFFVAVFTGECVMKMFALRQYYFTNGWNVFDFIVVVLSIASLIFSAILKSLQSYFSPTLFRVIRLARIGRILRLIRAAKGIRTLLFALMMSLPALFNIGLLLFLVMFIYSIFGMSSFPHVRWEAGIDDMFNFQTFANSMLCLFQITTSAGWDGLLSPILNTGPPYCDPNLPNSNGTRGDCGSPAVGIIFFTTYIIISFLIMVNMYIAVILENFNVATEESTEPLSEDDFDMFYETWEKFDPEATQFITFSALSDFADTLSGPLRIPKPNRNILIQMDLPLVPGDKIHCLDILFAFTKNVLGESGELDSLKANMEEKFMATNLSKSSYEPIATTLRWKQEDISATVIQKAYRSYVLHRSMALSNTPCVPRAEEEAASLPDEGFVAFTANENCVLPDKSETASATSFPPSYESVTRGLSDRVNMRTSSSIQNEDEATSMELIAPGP

Row | SMILES | IC50 [1] | IC50 [2]
1 | O=C(CN1CCN(c2cccc3c2cnn3-c2ccccc2F)C1=O)N1CCC(F)(F)CC1 [Example 297, 1-[2-(4,4-difluoropiperidin-1-yl)-2-oxoethyl]-3-[1-(2-fluorophenyl)-1H-indazol-4-yl]imidazolidin-2-one] | 881 nM | 3.02 µM
2 | O=C(CN1CCN(c2cccc3c2cnn3-c2ccccc2F)C1=O)N1CC(F)C1 [Example 298, 1-[2-(3-fluoroazetidin-1-yl)-2-oxoethyl]-3-[1-(2-fluorophenyl)-1H-indazol-4-yl]imidazolidin-2-one] | 1520 nM | 3.37 µM
3 | O=C(CN1CCN(c2cccc3c2cnn3-c2ccccc2F)C1=O)N1CCC(C(F)(F)F)CC1 [Example 299, 1-[1-(2-fluorophenyl)-1H-indazol-4-yl]-3-{2-oxo-2-[4-(trifluoromethyl)piperidin-1-yl]ethyl}imidazolidin-2-one] | 398 nM | 0.95 µM
4 | O=C(CN1CCN(c2cccc3c2cnn3-c2ccccc2F)C1=O)N1CCCC(C(F)(F)F)C1 (stereo not drawn) [Example 300, 1-[1-(2-fluorophenyl)-1H-indazol-4-yl]-3-{2-oxo-2-[3-(trifluoromethyl)piperidin-1-yl]ethyl}imidazolidin-2-one] | 1060 nM | 3.11 µM
5 | O=C(CN1CCN(c2cccc3c2cnn3-c2ccccc2F)C1=O)N1C[C@H]2CC[C@@H](C1)O2 [Example 301, 1-[1-(2-fluorophenyl)-1H-indazol-4-yl]-3-{2-[(1R,5S)-8-oxa-3-azabicyclo[3.2.1]oct-3-yl]-2-oxoethyl}imidazolidin-2-one] | 1560 nM | 3.16 µM
6 | O=C1CCN(C(=O)CN2CCN(c3cccc4c3cnn4-c3ccccc3F)C2=O)C1 [Example 302, 1-[1-(2-fluorophenyl)-1H-indazol-4-yl]-3-[2-oxo-2-(3-oxopyrrolidin-1-yl)ethyl]imidazolidin-2-one] | 7180 nM | 20 µM
7 | O=C(CN1CCN(c2cccc3c2cnn3-c2ccccc2F)C1=O)N1CCCCCC1 [Example 303, 1-[2-(azepan-1-yl)-2-oxoethyl]-3-[1-(2-fluorophenyl)-1H-indazol-4-yl]imidazolidin-2-one] | 930 nM | 2.46 µM
8 | O=C(CN1CCN(c2cccc3c2cnn3-c2ccccc2F)C1=O)NCC(F)(F)F [Example 304, 2-{3-[1-(2-fluorophenyl)-1H-indazol-4-yl]-2-oxoimidazolidin-1-yl}-N-(2,2,2-trifluoroethyl)acetamide] | 1410 nM | 4.79 µM
9 | CC(C)(C)CCn1ncc2c(N3CCN(CC(=O)N4CCCC4)C3=O)cccc21 [Example 305, 1-[1-(3,3-dimethylbutyl)-1H-indazol-4-yl]-3-[2-oxo-2-(pyrrolidin-1-yl)ethyl]imidazolidin-2-one] | 3330 nM | 3.67 µM
10 | CC(C)(C)n1ncc2c(N3CCN(CC(=O)N4CC[C@H](F)C4)C3=O)cccc21 [Example 306, 1-(1-tert-butyl-1H-indazol-4-yl)-3-{2-[(3S)-3-fluoropyrrolidin-1-yl]-2-oxoethyl}imidazolidin-2-one] | 20000 nM | 20 µM
11 | O=C(CN1CCN(c2cccc3c2cnn3-c2ccccc2F)C1=O)N1CC[C@H](C(F)(F)F)C1 [Example 308, 1-[1-(2-fluorophenyl)-1H-indazol-4-yl]-3-{2-oxo-2-[(3S)-3-(trifluoromethyl)pyrrolidin-1-yl]ethyl}imidazolidin-2-one] | 345 nM | 1.02 µM
12 | CC1(F)CN(C(=O)CN2CCN(c3cccc4c3cnn4-c3ccccc3F)C2=O)C1 [Example 309, 1-[2-(3-fluoro-3-methylazetidin-1-yl)-2-oxoethyl]-3-[1-(2-fluorophenyl)-1H-indazol-4-yl]imidazolidin-2-one] | 725 nM | 0.695 µM
13 | O=C(CN1CCN(c2cccc3c2cnn3-c2ccccc2F)C1=O)NC1CC(F)(F)C1 [Example 310, N-(3,3-difluorocyclobutyl)-2-{3-[1-(2-fluorophenyl)-1H-indazol-4-yl]-2-oxoimidazolidin-1-yl}acetamide] | 878 nM | 2.81 µM
14 | O=C1C[C@H]2CC[C@@H](C1)N2C(=O)CN1CCN(c2cccc3c2cnn3-c2ccccc2F)C1=O [Example 311, (1R,5S)-8-({3-[1-(2-fluorophenyl)-1H-indazol-4-yl]-2-oxoimidazolidin-1-yl}acetyl)-8-azabicyclo[3.2.1]octan-3-one] | 4350 nM | 5.85 µM
15 | O=C(CN1CCN(c2cccc3c2cnn3-c2ccccc2F)C1=O)N1CC(F)(F)C(F)(F)C1 [Example 312, 1-[1-(2-fluorophenyl)-1H-indazol-4-yl]-3-[2-oxo-2-(3,3,4,4-tetrafluoropyrrolidin-1-yl)ethyl]imidazolidin-2-one] | 1680 nM | 1.71 µM
16 | O=C1CCCN(C(=O)CN2CCN(c3cccc4c3cnn4-c3ccccc3F)C2=O)CC1 [Example 313, 1-({3-[1-(2-fluorophenyl)-1H-indazol-4-yl]-2-oxoimidazolidin-1-yl}acetyl)azepan-4-one] | 3250 nM | 2.72 µM
17 | O=C(/C=C\N1CCN(c2cccc3c2cnn3-c2ccccc2F)C1=O)N1CC[C@H](F)C1 [Example 314, 1-[1-(2-fluorophenyl)-1H-indazol-4-yl]-3-{(1Z)-3-[(3S)-3-fluoropyrrolidin-1-yl]-3-oxoprop-1-en-1-yl}imidazolidin-2-one] | 912 nM | 3.25 µM
18 | CCNC(=O)CN1CCN(c2cccc3c2cnn3-c2ccccc2F)C1=O [Example 315, N-ethyl-2-{3-[1-(2-fluorophenyl)-1H-indazol-4-yl]-2-oxoimidazolidin-1-yl}acetamide] | 3560 nM | 2.96 µM
19 | O=C(CCN1CCN(c2cccc3c2cnn3-c2ccccc2F)C1=O)N1CCC[C@@H](F)C1 [Example 317, 1-[1-(2-fluorophenyl)-1H-indazol-4-yl]-3-{3-[(3R)-3-fluoropiperidin-1-yl]-3-oxopropyl}imidazolidin-2-one] | 1280 nM | 2.44 µM
20 | O=C(CCN1CCN(c2cccc3c2cnn3-c2ccccc2F)C1=O)N1CCC[C@H](F)C1 [Example 318, 1-[1-(2-fluorophenyl)-1H-indazol-4-yl]-3-{3-[(3S)-3-fluoropiperidin-1-yl]-3-oxopropyl}imidazolidin-2-one] | 3470 nM | 3.14 µM
21 | COC1CN(C(=O)CN2CCN(c3cccc4c3cnn4-c3ccccc3F)C2=O)C1 [Example 319, 1-[1-(2-fluorophenyl)-1H-indazol-4-yl]-3-[2-(3-methoxyazetidin-1-yl)-2-oxoethyl]imidazolidin-2-one] | 3020 nM | 3.14 µM
22 | O=C(CN1CCN(c2cccc3c2cnn3-c2ccccc2F)C1=O)NC1CCOCC1 [Example 320, 2-{3-[1-(2-fluorophenyl)-1H-indazol-4-yl]-2-oxoimidazolidin-1-yl}-N-(tetrahydro-2H-pyran-4-yl)acetamide] | 10100 nM | 16.8 µM
23 | O=C(CN1CCN(c2cccc3c2cnn3-c2ccccc2F)C1=O)NC1COC1 [Example 321, 2-{3-[1-(2-fluorophenyl)-1H-indazol-4-yl]-2-oxoimidazolidin-1-yl}-N-(oxetan-3-yl)acetamide] | 5670 nM | 5.79 µM
24 | O=C(CN1CCN(c2cccc3c2cnn3-c2ccccc2F)C1=O)NC1CCC1 [Example 322, N-cyclobutyl-2-{3-[1-(2-fluorophenyl)-1H-indazol-4-yl]-2-oxoimidazolidin-1-yl}acetamide] | 1890 nM | 0.973 µM
